In patent US9611277B2 (Janssen Pharmaceutica NV, priority 2013, dated 2017):

How the values were obtained:
[1] = target: human orexin 2 receptor (Homo sapiens (Human), UniProt O43614); assay: Human orexin 2 receptor radioligand binding; details: human orexin 2 receptor; averages of 2-20 runs; read-out: hOX2 Ki
How it was run: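 HEK293 cells stably expressing human OX2 receptor, homogenized, incubated with [3H]-EMPA and compounds (DMSO ≤0.1%); nonspecific binding with 10 μM almorexant. Filter-bound radioactivity counted by scintillation; IC50 from one-site competition fit of triplicates, Ki from IC50 and predetermined radioligand Kd, averaged over 2-20 runs.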

[2] = target: rat orexin 1 receptor (Rattus norvegicus, UniProt P56718); assay: Rat orexin 1 receptor radioligand binding; details: rat orexin 1 receptor; averages of 2-20 runs; read-out: rOX1 Ki
How it was run: (§1)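 Competition binding with the tritiated thiazolyl-pyrrolidinyl-methanone radioligand in PBS on homogenized rat or human OX1R-expressing cell suspensions, ≤0.1% DMSO; nonspecific binding defined with 10 μM almorexant. Bound radioactivity read by scintillation after filtration; IC50 from one-site competition fit, converted to Ki using pre-determined radioligand Kd.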

[3] = target: human orexin 1 receptor (Homo sapiens, UniProt O43613); assay: Human orexin 1 receptor radioligand binding; details: human orexin 1 receptor; averages of 2-20 runs; read-out: hOX1 Ki
How it was run: as §1

Sequence of human orexin 2 receptor (O43614 whole entry): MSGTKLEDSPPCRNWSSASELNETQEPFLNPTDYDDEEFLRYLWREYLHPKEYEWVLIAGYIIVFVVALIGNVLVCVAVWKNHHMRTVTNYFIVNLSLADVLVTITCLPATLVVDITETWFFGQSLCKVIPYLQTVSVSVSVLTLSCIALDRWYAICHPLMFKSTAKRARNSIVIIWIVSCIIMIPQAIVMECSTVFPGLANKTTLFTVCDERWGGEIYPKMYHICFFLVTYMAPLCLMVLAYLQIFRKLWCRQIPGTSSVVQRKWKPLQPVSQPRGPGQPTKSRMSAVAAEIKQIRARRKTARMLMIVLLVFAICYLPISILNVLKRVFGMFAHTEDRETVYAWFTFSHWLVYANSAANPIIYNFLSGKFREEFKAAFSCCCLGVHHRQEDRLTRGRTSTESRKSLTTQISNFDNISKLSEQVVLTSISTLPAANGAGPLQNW

Row | SMILES | Ki [1] [nM] | Ki [2] [nM] | Ki [3] [nM]
1 | COCCN(c1ccc(C(F)(F)F)cn1)[C@@H]1C[C@H]2C[C@@H]1N(C(=O)c1cccc(F)c1-c1ncccn1)C2 [Example 163, (3-fluoro-2-(pyrimidin-2-yl)phenyl)((1S,4S,6R)-6-((2-methoxyethyl)(5-(trifluoromethyl)pyridin-2-yl)amino)-2-azabicyclo[2.2.1]heptan-2-yl)methanone] | 962 | 19 | 12
2 | O=C(c1ccccc1-n1nccn1)N1C[C@H]2C[C@@H](Nc3ccc(Br)cn3)[C@@H]1C2 [Example 166, (2-(2H-1,2,3-triazol-2-yl)phenyl)((1S,4S,6R)-6-((5-bromopyridin-2-yl)amino)-2-azabicyclo[2.2.1]heptan-2-yl)methanone] | 236 | 2 | 4
3 | O=C(c1cccc(F)c1-c1ncccn1)N1C[C@H]2C[C@@H](Nc3ccc(Br)cn3)[C@@H]1C2 [Example 167, ((1S,4S,6R)-6-((5-bromopyridin-2-yl)amino)-2-azabicyclo[2.2.1]heptan-2-yl)(3-fluoro-2-(pyrimidin-2-yl)phenyl)methanone] | 239 | 2 | 6
4 | O=C(c1c(F)cccc1-c1ncccn1)N1C[C@H]2C[C@@H](Nc3ccc(Br)cn3)[C@@H]1C2 [Example 168, ((1S,4S,6R)-6-((5-bromopyridin-2-yl)amino)-2-azabicyclo[2.2.1]heptan-2-yl)(2-fluoro-6-(pyrimidin-2-yl)phenyl)methanone] | 351 | 2 | 4
5 | O=C(c1ccccc1-n1nccn1)N1C[C@H]2C[C@@H](Nc3ccc(Cl)cn3)[C@@H]1C2 [Example 169, (2-(2H-1,2,3-triazol-2-yl)phenyl)((1S,4S,6R)-6-((5-chloropyridin-2-yl)amino)-2-azabicyclo[2.2.1]heptan-2-yl)methanone] | 285 | 3 | 4
6 | O=C(c1cccc(F)c1-c1ncccn1)N1C[C@H]2C[C@@H](Nc3ccc(Cl)cn3)[C@@H]1C2 [Example 170, ((1S,4S,6R)-6-((5-chloropyridin-2-yl)amino)-2-azabicyclo[2.2.1]heptan-2-yl)(3-fluoro-2-(pyrimidin-2-yl)phenyl)methanone] | 321 | 4 | 12
7 | O=C(c1ccc(F)cc1-c1ncccn1)N1C[C@H]2C[C@@H](Nc3ccc(Cl)cn3)[C@@H]1C2 [Example 171, ((1S,4S,6R)-6-((5-chloropyridin-2-yl)amino)-2-azabicyclo[2.2.1]heptan-2-yl)(4-fluoro-2-(pyrimidin-2-yl)phenyl)methanone] | 1900 | 27 | 25
8 | O=C(c1ccccc1-n1nccn1)N1C[C@H]2C[C@@H](Nc3ccc(C(F)F)cn3)[C@@H]1C2 [Example 173, (2-(2H-1,2,3-triazol-2-yl)phenyl)((1S,4S,6R)-6-((5-(difluoromethyl)pyridin-2-yl)amino)-2-azabicyclo[2.2.1]heptan-2-yl)methanone] | 264 | 55 | 33
9 | O=C(c1cccc(F)c1-c1ncccn1)N1C[C@H]2C[C@@H](Nc3ccc(C(F)F)cn3)[C@@H]1C2 [Example 174, ((1S,4S,6R)-6-((5-(difluoromethyl)pyridin-2-yl)amino)-2-azabicyclo[2.2.1]heptan-2-yl)(3-fluoro-2-(pyrimidin-2-yl)phenyl)methanone] | 230 | 18 | 15
10 | COc1ccc(N[C@@H]2C[C@H]3C[C@@H]2N(C(=O)c2ccccc2-n2nccn2)C3)nc1 [Example 175, (2-(2H-1,2,3-triazol-2-yl)phenyl)((1S,4S,6R)-6-((5-methoxypyridin-2-yl)amino)-2-azabicyclo[2.2.1]heptan-2-yl)methanone] | 844 | 170 | 191
11 | COc1ccc(N[C@@H]2C[C@H]3C[C@@H]2N(C(=O)c2cccc(F)c2-c2ncccn2)C3)nc1 [Example 176, (3-fluoro-2-(pyrimidin-2-yl)phenyl)((1S,4S,6R)-6-((5-methoxypyridin-2-yl)amino)-2-azabicyclo[2.2.1]heptan-2-yl)methanone] | 1300 | 56 | 52
12 | O=C(c1ccccc1-n1nccn1)N1C[C@H]2C[C@@H](Nc3ncc(C(F)(F)F)cc3F)[C@@H]1C2 [Example 177, (2-(2H-1,2,3-triazol-2-yl)phenyl)((1S,4S,6R)-6-((3-fluoro-5-(trifluoromethyl)pyridin-2-yl)amino)-2-azabicyclo[2.2.1]heptan-2-yl)methanone] | 200 | 3 | 3
13 | Cc1ccc(-n2nccn2)c(C(=O)N2C[C@H]3C[C@@H](Nc4ncc(C(F)(F)F)cc4F)[C@@H]2C3)n1 [Example 178, ((1S,4S,6R)-6-((3-fluoro-5-(trifluoromethyl)pyridin-2-yl)amino)-2-azabicyclo[2.2.1]heptan-2-yl)(6-methyl-3-(2H-1,2,3-triazol-2-yl)pyridin-2-yl)methanone] | 112 | 6 | 8
14 | O=C(c1cccc(F)c1-c1ncccn1)N1C[C@H]2C[C@@H](Nc3ncc(C(F)(F)F)cc3F)[C@@H]1C2 [Example 179, (3-fluoro-2-(pyrimidin-2-yl)phenyl)((1S,4S,6R)-6-((3-fluoro-5-(trifluoromethyl)pyridin-2-yl)amino)-2-azabicyclo[2.2.1]heptan-2-yl)methanone] | 217 | 5 | 5
15 | O=C(c1ccccc1-c1ncc(F)cn1)N1C[C@H]2C[C@@H](Nc3ncc(C(F)(F)F)cc3F)[C@@H]1C2 [Example 180, ((1S,4S,6R)-6-((3-fluoro-5-(trifluoromethyl)pyridin-2-yl)amino)-2-azabicyclo[2.2.1]heptan-2-yl)(2-(5-fluoropyrimidin-2-yl)phenyl)methanone] | 380 | 6 | 5
16 | Cc1ccc(-n2nccn2)c(C(=O)N2C[C@H]3C[C@@H](Nc4nc5ccccc5o4)[C@@H]2C3)n1 [Example 181, ((1S,4S,6R)-6-(benzo[d]oxazol-2-ylamino)-2-azabicyclo[2.2.1]heptan-2-yl)(6-methyl-3-(2H-1,2,3-triazol-2-yl)pyridin-2-yl)methanone] | 163 | 5 | 8
17 | O=C(c1cccc(F)c1-n1nccn1)N1C[C@H]2C[C@@H](Nc3nc4ccccc4o3)[C@@H]1C2 [Example 182, ((1S,4S,6R)-6-(benzo[d]oxazol-2-ylamino)-2-azabicyclo[2.2.1]heptan-2-yl)(3-fluoro-2-(2H-1,2,3-triazol-2-yl)phenyl)methanone] | 218 | 3 | 4
18 | O=C(c1cccc(F)c1-c1ncccn1)N1C[C@H]2C[C@@H](Nc3nc4ccccc4o3)[C@@H]1C2 [Example 183, ((1S,4S,6R)-6-(benzo[d]oxazol-2-ylamino)-2-azabicyclo[2.2.1]heptan-2-yl)(3-fluoro-2-(pyrimidin-2-yl)phenyl)methanone] | 206 | 5 | 7
19 | Cc1ccc(N[C@@H]2C[C@H]3C[C@@H]2N(C(=O)c2cccc(F)c2-c2ncccn2)C3)cc1 [Example 184, (3-fluoro-2-(pyrimidin-2-yl)phenyl)((1S,4S,6R)-6-(p-tolylamino)-2-azabicyclo[2.2.1]heptan-2-yl)methanone] | 337 | 13 | 15
20 | O=C(c1cccc2cc[nH]c12)N1C[C@H]2C[C@@H](Nc3ccc(C(F)(F)F)cn3)[C@@H]1C2 [Example 185, (1H-indol-7-yl)((1S,4S,6R)-6-((5-(trifluoromethyl)pyridin-2-yl)amino)-2-azabicyclo[2.2.1]heptan-2-yl)methanone] | 146 | 27 | 33
21 | O=C(c1cccc2cn[nH]c12)N1C[C@H]2C[C@@H](Nc3ccc(C(F)(F)F)cn3)[C@@H]1C2 [Example 186, (1H-indazol-7-yl)((1S,4S,6R)-6-((5-(trifluoromethyl)pyridin-2-yl)amino)-2-azabicyclo[2.2.1]heptan-2-yl)methanone] | 2700 | 123 | 151
22 | Cc1cnc(C(=O)N2C[C@H]3C[C@@H](Nc4cnc(C(F)(F)F)cn4)[C@@H]2C3)c(-n2nccn2)c1 [Example 187, (5-methyl-3-(2H-1,2,3-triazol-2-yl)pyridin-2-yl)((1S,4S,6R)-6-((5-(trifluoromethyl)pyrazin-2-yl)amino)-2-azabicyclo[2.2.1]heptan-2-yl)methanone] | 1600 | 28 | 30
23 | O=C(c1cccnc1-n1nccn1)N1C[C@H]2C[C@@H](Nc3cnc(C(F)(F)F)cn3)[C@@H]1C2 [Example 188, (2-(2H-1,2,3-triazol-2-yl)pyridin-3-yl)((1S,4S,6R)-6-((5-(trifluoromethyl)pyrazin-2-yl)amino)-2-azabicyclo[2.2.1]heptan-2-yl)methanone] | > 10000 | 191 | 210
24 | O=C(c1ncccc1-c1ncccn1)N1C[C@H]2C[C@@H](Nc3cnc(C(F)(F)F)cn3)[C@@H]1C2 [Example 189, (3-(pyrimidin-2-yl)pyridin-2-yl)((1S,4S,6R)-6-((5-(trifluoromethyl)pyrazin-2-yl)amino)-2-azabicyclo[2.2.1]heptan-2-yl)methanone] | 678 | 14 | 11
